This note sets out measurements from patent US4593106A, “4-[2-(dialkylamino)ethyl]-7-hydroxyisatins” (SmithKline Beckman Corporation, priority 1984, dated 1986).

pEC50: −log10 of the molar value. Like-named read-outs stand apart in the source and are kept apart here.

The target of one test is T1, D2 (Oryctolagus cuniculus, UniProt G1T1Q0).
T1 construct: perfused rabbit ear artery test; from tissue; host or cells: perfused rabbit ear artery (sympathetic nerve terminals)
Kind of test: perfused rabbit ear artery test for D2-agonist activity.

In another test the test system is D2 -receptors. Kind of test: peripheral D2-agonist selectivity (general statement, no test named). The note with it: main locus of action at presynaptic dopaminergic receptors or sympathetic nerve terminals.

T1 sequence (G1T1Q0 1-443): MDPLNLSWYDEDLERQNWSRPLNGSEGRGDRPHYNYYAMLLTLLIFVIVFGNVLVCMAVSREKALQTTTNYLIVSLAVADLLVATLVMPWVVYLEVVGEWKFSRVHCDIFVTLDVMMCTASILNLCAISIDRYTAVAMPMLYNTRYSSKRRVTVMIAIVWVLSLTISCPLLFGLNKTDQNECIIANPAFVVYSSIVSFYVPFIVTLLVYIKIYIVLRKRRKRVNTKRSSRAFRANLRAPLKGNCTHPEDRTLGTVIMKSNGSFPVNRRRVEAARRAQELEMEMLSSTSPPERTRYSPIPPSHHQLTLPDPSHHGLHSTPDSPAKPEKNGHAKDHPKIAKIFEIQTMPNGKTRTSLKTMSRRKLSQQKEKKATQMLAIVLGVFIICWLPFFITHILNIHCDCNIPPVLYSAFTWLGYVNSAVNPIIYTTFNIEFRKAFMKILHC

A word on the pEC50: it is the EC50 on a negative log10 scale, so that one unit is a factor of ten. Turning to `CCCN(CCC)CCc1ccc(O)c(O)c1` [N,N-di-n-propyldopamine, reference compound], at D2 (perfused rabbit ear artery test, D2-agonist activity, read-out: EC50), the pEC50 was 7.22 to 7.30.
Compound `Br.CCCN(CCC)CCc1ccc(O)c2c1C(=O)C(=O)N2` [4-[2-(di-n-propylamino)ethyl]-7-hydroxyisatin hydrobromide] showed a pEC50 at D2 of 8.15 to 8.70. The “selective peripheral D2-agonist” value with D2 -receptors is “selective peripheral D2 -agonists”.
